Measured values as given in patent US10155721B2, “Lignanamides and a method of treating neurodegenerative diseases by using the same” (Macau University of Science and Technology, priority 2017, dated 2018).

Experiments:
Format in all cases: cell-based
PC12 cells [1] = assay: MTT assay and microscopy, tunicamycin (Tm)-induced cytotoxicity in PC12 cells; details: for cell death and cell growth induced by Tm (microscopic observations): PC12 cells pre-treated with 50 μM, FIG. 12A; for Tm-induced PC12 cell toxicity (MTT assay): pre-treatment 12.5, 25, 50 μM for 12 h, then Tm 48 h, FIG. 12B
Experimental: (§1) In one example embodiment, effects of the Sativamide A and the Sativamide B ER stress-induced neurotoxicity on a neuroblastoma cell model (PC12 cells) are tested. PC-12 cells are purchased from the American Type Culture Collection (ATCC). PC-12 cells are cultured in DMEM medium (Invitrogen) supplemented with 100 U/ml penicillin, 100 μg/mL streptomycin, and 10% horse serum and 5% fetal bovine serum (Gibco, Carlsbad, USA). The cells are incubated at 37° C. in a humidified atmosphere of 5% CO2 and 95% air. PC12 cells are seeded into 96-well culture plates (5.0×10^3 cells/well) and cultured under standard conditions for 12 h. Cells are then treated with the Sativamide A and the Sativamide B at concentrations of 12.5 μM, 25 μM and 50 μM or a vehicle for another 12 h. After treatment, the whole medium is replaced with fresh medium containing tunicamycin (Tm) (0.1 nM or 1.0 μM) or thapsigargin (Tg) (10 nM or 100 nM) and the cells are incubated for additional 48 h. After incubation, supernatant is changed by fresh medium and thiazolyl blue tetrazolium bromide (MTT) is given at a concentration of 0.5 mg/mL. After incubation at 37° C. for 4 h, the absorbance is measured at 570 nm with a micro-plate reader.

PC12 cells [2] = assay: MTT assay, thapsigargin (Tg)-induced cytotoxicity in PC12 cells; details: pre-treatment 12.5, 25, 50 μM for 12 h, then Tg 48 h; FIG. 12C
Experimental: as §1

PC12 cells [3] = assay: Effect of the compounds on viability of PC12 cells; details: final concentration 50 μM, FIGS. 12A to 12C
Experimental: as §1

SH-SY5Y cells [4] = assay: MTT assay, Tm-induced cytotoxicity in SH-SY5Y cells (FIG. 13B); details: pre-treatment 12.5, 25, 50 μM for 12 h, then inducer 48 h
Experimental: (§2) In one example embodiment, effects of the Sativamide A and the Sativamide B on ER stress-induced neurotoxicity on a neuroblastoma cell models (SH-SY5Y cells) are tested. SH-SY5Y cells are purchased from the American Type Culture Collection (ATCC). SH-SY5Y cells are cultured in 1:1 mixture of DMEM and F12 medium containing 10% fetal bovine serum (Gibco, Carlsbad, USA). SH-SY5Y cells are incubated at 37° C. in a humidified atmosphere of 5% CO2 and 95% air. SH-SY5Y cells are seeded into 96-well culture plates (5.0×10^3 cells/well) and cultured under standard conditions for 12 h. Cells are then treated with the Sativamide A and the Sativamide B at concentrations of 12.5 μM, 25 μM and 50 μM or a vehicle for another 12 h. After treatment, the whole medium is replaced with fresh medium containing Tm (0.1 or 1.0 μM) or Tg (10 or 100 nM) and cells are incubated for additional 48 h. After incubation, supernatant is changed by fresh medium and MTT is given at a concentration of 0.5 mg/mL. After incubation at 37° C. for 4 h, the absorbance is measured at 570 nm with a micro-plate reader.

SH-SY5Y cells [5] = assay: MTT assay and microscopy, Tg-induced cytotoxicity in SH-SY5Y cells; details: for Tg-induced cell death and cell growth (microscopic observations): SH-SY5Y cells pre-treated with 50 μM, FIG. 13A; for ER stress-mediated Tg-induced cytotoxicity in SH-SY5Y cells (MTT assay): pre-treatment 12.5, 25, 50 μM for 12 h, then Tg 48 h, FIG. 13C
Experimental: as §2

SH-SY5Y cells [6] = assay: Effect of the compounds on viability of SH-SY5Y cells; details: final concentration 50 μM, FIGS. 13A to 13C
Experimental: as §2

SMILES: O=C(NCCc1ccc(O)cc1)C1=C[C@]23C=CC(=O)[C@@]2(O)c2cc(O)c(O)cc2[C@@H]3[C@H]1C(=O)NCCc1ccc(O)cc1 [Sativamide A]
- cell death and cell growth induced by Tm (microscopic observations) (PC12 cells [1]): markedly reduced
- Tm-induced PC12 cell toxicity (MTT assay) (PC12 cells [1]): mitigate the Tm-induced PC12 cell toxicity in a dose-dependent manner
- ER stress-mediated cytotoxicity in PC12 cells induced by Tg (MTT assay) (PC12 cells [2]): suppress ER stress-mediated cytotoxicity in PC12 cells that is induced by Tg in a dose-dependent manner
- adverse effects on cell viability (PC12 cells [3]): no adverse effects on cell viability
- Tg-induced SH-SY5Y cell toxicity (MTT assay, FIG. 13B) (SH-SY5Y cells [4]): mitigate the Tg-induced SH-SY5Y cell toxicity in a dose-dependent manner
- Tg-induced cell death and cell growth (microscopic observations) (SH-SY5Y cells [5]): markedly reduced
- ER stress-mediated Tg-induced cytotoxicity in SH-SY5Y cells (MTT assay) (SH-SY5Y cells [5]): suppress ER stress-mediated Tg-induced cytotoxicity in SH-SY5Y cells tin a dose-dependent manner
- adverse effects on cell viability (SH-SY5Y cells [6]): no adverse effects on cell viability

SMILES: CO[C@]12C(=O)C=C[C@]13C=C(C(=O)NCCc1ccc(O)cc1)[C@H](C(=O)NCCc1ccc(O)cc1)[C@@H]3c1cc(O)c(O)cc12 [Sativamide B, 10-methoxyl-sativamide A]
- cell death and cell growth induced by Tm (microscopic observations) (PC12 cells [1]): markedly reduced
- Tm-induced PC12 cell toxicity (MTT assay) (PC12 cells [1]): mitigate the Tm-induced PC12 cell toxicity in a dose-dependent manner
- ER stress-mediated cytotoxicity in PC12 cells induced by Tg (MTT assay) (PC12 cells [2]): suppress ER stress-mediated cytotoxicity in PC12 cells that is induced by Tg in a dose-dependent manner
- adverse effects on cell viability (PC12 cells [3]): no adverse effects on cell viability
- Tg-induced SH-SY5Y cell toxicity (MTT assay, FIG. 13B) (SH-SY5Y cells [4]): mitigate the Tg-induced SH-SY5Y cell toxicity in a dose-dependent manner
- Tg-induced cell death and cell growth (microscopic observations) (SH-SY5Y cells [5]): markedly reduced
- ER stress-mediated Tg-induced cytotoxicity in SH-SY5Y cells (MTT assay) (SH-SY5Y cells [5]): suppress ER stress-mediated Tg-induced cytotoxicity in SH-SY5Y cells tin a dose-dependent manner
- adverse effects on cell viability (SH-SY5Y cells [6]): no adverse effects on cell viability
